Results on one molecule are retold here after US10111893B2, “Calmangafodipir, a new chemical entity, and other mixed metal complexes, methods of preparation, compositions, and methods of treatment” (priority 2012, dated 2018).

The test system of series [1] is CT26 tumors. As to the kind of experiment: Antitumor activity of oxaliplatin with or without calmangafodipir in CT26-bearing mice. It is filed as in vivo, balb/c mice. The protocol:
When the cells reached ˜50% confluency they were harvested by trypsinization. Briefly, cells were washed with phosphate based saline (PBS) (pH 7.3) and exposed to 0.05% Trypsin/0.53 mM EDTA at 37° C. for ˜5 min. The trypsinization was stopped by adding RPMI1640 culture medium. Cells were counted and centrifuged at 200×g for 5 min. Thereafter, they were washed in PBS, centrifuged again and resuspended in PBS at a concentration of 2×10^6/350 μl for injection into mice. Balb/c female mice between 6 and 8 weeks of age were used, as described by Laurent et al., 2005. Briefly, each mouse was injected subcutaneously in the back of the neck with 2×10^6 of CT26 cells at day 0. After 7 days (day 7) when the tumors were detectable, the tumor size was determined with a caliper and mice were grouped (5 in each group) so that the sizes of the tumors were not statistically different by group. Oxaliplatin±calmangafodipir (lot #11AK0105B) was injected and one group of mice received vehicle (0.9% saline+5% glucose) treatment alone. In a first series of experiments, mice were injected i.v. with saline or 50 mg/kg calmangafodipir 30 minutes prior to i.p. administration of 20 mg/kg oxaliplatin (diluted in 5% glucose) or 5% glucose. These mice received in addition saline or 50mg/kg calmangafodipir 24 hours later (day 8). In another series of experiments, mice were injected i.v. with saline or 5 mg/kg calmangafodipir 30 minutes […] (diluted in 5% glucose) or 5% glucose, and saline or 5 mg/kg calmangafodipir 24 hours later (day 8). The mice were killed on day 10 and the tumors were excised and wet weights were determined.

Another series relates to LLC1 NSCLC cells. As to the kind of experiment: MTT viability assay, cytotoxic activity. It is filed as cell-based, murine. The conditions noted are these: 48 h. The method, then: (§1) The viability of U1810 or LLC1 cells in the presence of increasing concentrations of calmangafodipir or mangafodipir is presented as concentration response curves (mean±S.D.). The individual curves were fitted to the sigmoidal variable slope response logistic equation (Graphpad Prism, version 5.02). From this analysis the concentrations causing 50% inhibition (IC50) of the test substances were calculated.
(Tetrazolium dyes change colour on reduction, which living cells bring about.)

Series [2] is described as follows: Mn content of brain, pancreas and liver after repeated intravenous injections. The settings on record: rats, 39 iv doses, 72 μmol/kg manganese each, 3 times a week for 13 weeks.
Experimental: After the 13-week administration period, the rats were sacrificed and the brains and pancreas were dissected out and approximately 0.5 g samples were stored frozen until Mn analysis. The Mn content of each sample was analyzed by ICP-MS. Results are expressed as μg/g wet weight±S.E.M. Statistical difference between the mangafodipir group and the calmangafodipir group, with respect to Mn content, was tested by a paired Student's t-test. A p-value lower than 0.05 was considered as a statistically significant difference.
In series [3] the test system is CT26 (mouse colon carcinoma) cells. As to the kind of experiment: MTT viability assay, cytotoxic activity. The settings on record: 48 h, 1-1,000 μM. The protocol:
The viability of cells was measured using the MTT assay. […] The viability of the cells was then assessed by adding 5 mg/ml methylthiazoletetrazolium (MTT) to a final concentration of 0.5 mg/ml and incubating cells for a further 4 h at 37° C. The blue formazan that is formed by mitochondrial dehydrogenases of viable cells was then dissolved over night at 37° C. by adding 10% SDS and 10 mM HCl to a final concentration of 5% SDS and 5 mM HCl. Finally, the absorbance of the solution was read at 570 nm with a reference at 670 nm in a microplate reader Spectramax 340 (Molecular Devices, Sunnyvale, Calif., USA) connected to an Apple Macintosh computer running the program Softmax Pro V1.2.0 (Molecular Devices, Sunnyvale, Calif., USA).

A further series deals with white blood cells (WBC). As to the kind of experiment: Myelosuppressive effects of oxaliplatin in balb/c mice, cytoprotection. The settings on record: 12.5 mg/kg oxaliplatin plus 5 mg/kg calmangafodipir iv 30 min before and 24 h after.
The test system of series [4] is white blood cells (WBC), lymphocytes (LYM), neutrophils (NEU). Briefly: Myelosuppressive effects of carboplatin in balb/c mice, cytoprotection. The format is in vivo. The text has this: A control group received vehicle (saline) and saline instead of carboplatin.
Series [5] in a line: Exposure of solids at 25° C./60% RH and 40° C./75% RH (water absorption). The format is physicochemical. The settings on record: 7 days at 25° C./60% RH and 40° C./75% RH. The method, then: Furthermore, the preparation of a single active pharmaceutical ingredient reduces the cost of manufacture of a treatment dosage. In addition, the need for dosing of a single material reduces the chance for errors in the formulation of the product.
In a 4:1 ratio approximately 200 mg of calfodipir (CaDPDP) and 50 mg of mangafodipir (MnDPDP) were weighed into a 40 mL vial and dissolved in 40 mL of DI water at room temperature to generate a yellow solution. The yellow aqueous solution was spray dried using a Buchi Mini-Spray Dryer B-290 while attached to the Buchi dehumidifier B-296 as an air conditioner allowing the intake of air from the laboratory. Spray drying optimization experiments were performed at elevated inlet temperatures (220° C.) with varying feed rates (20, 30, 40, 50 and 60%). Recovery of product ranged from 180-230 mg.

Series [6] deals with CT26 tumors. As to the kind of experiment: Antitumor activity of oxaliplatin with or without calmangafodipir in CT26-bearing immune competent and nude balb/c mice. The format is in vivo. The settings on record: 5 mg/kg calmangafodipir with 10 mg/kg oxaliplatin. The protocol:
When the cells reached ˜50% confluency they were harvested by trypsinization. Briefly, cells were washed with PBS (pH 7.3) and exposed to 0.05% Trypsin/0.53 mM EDTA at 37° C. for ˜5 min. The trypsinization was stopped by adding RPMI 1640 culture medium. Cells were counted and centrifuged at 200×g for 5 min. Thereafter, they were washed in PBS, centrifuged again and resuspended in PBS at a concentration of 2×10^6/350 μl for injection into mice. Immune competent balb/c female mice (balb/c) and immune incompetent nude female balb/c mice (blab/c nu/nu) between 6 and 8 weeks of age were used, as described by Laurent et al., 2005. Briefly, each mouse was injected subcutaneously in the back of the neck with 2×10^6 of CT26 cells at day 0. After 7 days (day 7) when the tumors were detectable, the tumor size was determined with a caliper and mice were grouped (5 in each group) so that the sizes of the tumors were not statistically different by group. Groups of mice (5 in each group, as illustrated in FIG. 14) were injected i.v. with saline or 5 mg/kg calmangafodipir (lot #11AK0105B) 30 minutes prior to i.p. administration of 10 mg/kg oxaliplatin (diluted in 5% glucose) or 5% glucose. Mice received in addition saline or 5 mg/kg calmangafodipir 24 hours later (day 8). The mice were sacrificed on day 10 and the tumors were excised and wet weights were determined. The results are presented in a graph for the various treatments (mean±S.E.M.).

Series [7] is described as follows: Variable humidity XRPD analysis of crystalline forms. It is filed as physicochemical. The conditions noted are these: 10 mg scale, change of ambient humidity. An excerpt: X-Ray Powder Diffraction (XRPD) is most widely used in the identification and characterization of crystalline solids, each of which produces a distinctive diffraction pattern. Both the positions (corresponding to lattice spacings) and the relative intensity of the lines are indicative of a particular phase and material, providing a “fingerprint” for comparison.

The test system of a further series is human U1810 NSCLC cells. Briefly: MTT viability assay, cytotoxic activity. The format is cell-based. The method, then: as §1
A short description of series [8]: Manganese urine excretion 0-24 h after intravenous injection. The conditions noted are these: rats.
Experimental: To obtain basal content of manganese (Mn) and zinc (Zn) in urine, two additional (control) rats received 0.25 ml saline and were placed in metabolic cages for urine collection over the same period of time. The urine samples were then stored at −80° C. until Mn analysis. Before analysis, the samples were thawed and extensively shaken to obtain homogenous samples. A five ml aliquot was taken from each sample and 5 ml concentrated nitric acid was added. The samples were then resolved in a microwave oven and thereafter diluted with distilled water to a final volume of 50 ml. The Mn content of each sample was analyzed by ICP-MS (Inductively Coupled Plasma Mass Spectrometry). Identical samples of calmangafodipir and mangafodipir as those injected in the rats (i.e., 0.25 ml) were withdrawn and injected into test tubes. These samples were treated in an identical manner to that of the urine samples and analyzed for their Mn content. Results are presented as total 0-24 h urine Mn content (expressed as μmol/kg±S.E.M.) and as percentage (±S.E.M.) of the injected dose. […] A p-value lower than 0.05 was considered as a statistically significant difference.

Structures are written as SMILES. Where only a bound is given, the exact number is not on record here.

On to `Cc1ncc(COP(=O)([O-])O)c(CN(CCN(CC(=O)O)Cc2c(COP(=O)([O-])O)cnc(C)c2O)CC(=O)O)c1O.Cc1ncc(COP(=O)([O-])O)c(CN(CCN(CC(=O)O)Cc2c(COP(=O)([O-])O)cnc(C)c2O)CC(=O)O)c1O.Cc1ncc(COP(=O)([O-])O)c(CN(CCN(CC(=O)O)Cc2c(COP(=O)([O-])O)cnc(C)c2O)CC(=O)O)c1O.Cc1ncc(COP(=O)([O-])O)c(CN(CCN(CC(=O)O)Cc2c(COP(=O)([O-])O)cnc(C)c2O)CC(=O)O)c1O.Cc1ncc(COP(=O)([O-])O)c(CN(CCN(CC(=O)O)Cc2c(COP(=O)([O-])O)cnc(C)c2O)CC(=O)O)c1O.[Ca+2].[Ca+2].[Ca+2].[Ca+2].[Mn+2]` [calmangafodipir], for which the “influence on antitumor effect of oxaliplatin” value was “statistically significant better antitumor effect” in the series with CT26 tumors [1] (5 mg/kg calmangafodipir iv with 10 mg/kg oxaliplatin); “did not have any negative influence on the antitumor effect of oxaliplatin” in the series on CT26 tumors [1] (50 mg/kg calmangafodipir iv with 20 mg/kg oxaliplatin); “did not have any negative influence on the antitumor effect of oxaliplatin” in the series on CT26 tumors [6] (immune competent and immune incompetent mice). Moreover, the “potency to kill cells compared with mangafodipir” value in the series on LLC1 NSCLC cells is recorded as “significantly more potent than mangafodipir”. The Mn brain content in series [2] came to 0.74±0.01 μg/g w.w. The “Mn content in the pancreas” value in series [2] amounted to 3.35 ± 0.19 µmol/kg. For the same molecule, in series [3], the “cytotoxic activity relative to mangafodipir” value is reported as “about 20 times”. The “fall in WBC” value in the series on white blood cells (WBC) is recorded as “about 25%”. The “effect on carboplatin-induced decreases in WBC, NEU and LYM” value in [4] (calmangafodipir 3 mg/kg with carboplatin 125 mg/kg) is “abolished these decreases”. The “shape of dose-response of myeloprotection” value in series [4] (calmangafodipir 1, 3, 10 or 30 mg/kg with carboplatin 125 mg/kg) is listed as “bell shaped appearance”. In addition, the “appearance of solid after exposure” value in series [5] is reported as “remained a free flowing solid”. The figures for the “mean tumor weight compared to controls” value in the series with CT26 tumors [6] (immune competent mice) and in the series on CT26 tumors [6] (immune deficient mice) were “statistically significantly reduced” and “no such reduction was seen”, respectively. Also, in series [7], the “time within which form conversions occur” value was at most 3 h. In addition, the “IC50 ratio between mangafodipir and calmangafodipir (potency relative to mangafodipir)” value in the series with human U1810 NSCLC cells was “about 28 times”. For the same molecule, the IC50 with human U1810 NSCLC cells (48 h, MTT, read-out: IC50 (concentration causing 50% inhibition of viability)) was 22.7 µM. The “Mn recovered in 0-24 h urine” value in series [8] (iv 0.25 ml, 2.59 μmol Mn (mangafodipir) or 2.52 μmol Mn (calmangafodipir) injected) was 1.27 ± 0.07 µmol. Moreover, in [8] (iv, basal excretion subtracted), the “Mn in 0-24 h urine as percentage of the injected dose” value is given as 50.5±2.6%.
